Molecular target: T1, Tyrosine-protein kinase JAK2 (Homo sapiens, UniProt O60674)
Test: not given
Settings: HEK293F, dose 100.0 µM

T1 sequence (O60674 whole entry): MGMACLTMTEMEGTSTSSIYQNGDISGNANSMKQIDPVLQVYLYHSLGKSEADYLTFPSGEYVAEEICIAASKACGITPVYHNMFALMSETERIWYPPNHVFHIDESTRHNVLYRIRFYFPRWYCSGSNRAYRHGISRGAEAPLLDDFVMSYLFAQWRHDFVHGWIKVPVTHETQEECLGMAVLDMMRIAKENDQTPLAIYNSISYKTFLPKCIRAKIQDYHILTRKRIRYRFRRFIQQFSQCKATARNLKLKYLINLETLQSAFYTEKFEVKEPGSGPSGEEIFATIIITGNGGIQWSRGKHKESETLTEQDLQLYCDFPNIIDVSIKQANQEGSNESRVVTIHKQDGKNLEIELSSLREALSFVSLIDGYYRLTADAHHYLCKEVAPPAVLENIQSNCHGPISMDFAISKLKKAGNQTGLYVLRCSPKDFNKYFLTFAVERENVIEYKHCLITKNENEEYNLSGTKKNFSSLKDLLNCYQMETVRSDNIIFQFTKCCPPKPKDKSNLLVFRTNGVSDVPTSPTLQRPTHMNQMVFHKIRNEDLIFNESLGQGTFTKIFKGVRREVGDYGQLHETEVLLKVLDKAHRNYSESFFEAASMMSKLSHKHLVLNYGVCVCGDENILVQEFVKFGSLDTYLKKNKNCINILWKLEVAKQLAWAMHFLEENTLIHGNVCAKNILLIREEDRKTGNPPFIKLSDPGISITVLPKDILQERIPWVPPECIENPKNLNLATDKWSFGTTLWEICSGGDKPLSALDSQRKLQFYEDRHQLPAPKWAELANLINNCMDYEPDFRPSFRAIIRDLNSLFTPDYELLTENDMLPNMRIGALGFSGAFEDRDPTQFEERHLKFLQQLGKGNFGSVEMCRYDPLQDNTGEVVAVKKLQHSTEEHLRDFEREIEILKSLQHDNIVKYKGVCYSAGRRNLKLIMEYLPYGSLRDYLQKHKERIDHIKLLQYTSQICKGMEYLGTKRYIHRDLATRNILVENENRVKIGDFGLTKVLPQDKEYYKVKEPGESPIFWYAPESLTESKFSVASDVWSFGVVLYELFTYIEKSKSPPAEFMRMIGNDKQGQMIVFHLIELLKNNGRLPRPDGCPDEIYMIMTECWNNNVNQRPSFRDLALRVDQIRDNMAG

| SMILES | ΔTm [°C] |
| --- | --- |
| Cc1cnc(Nc2cc(F)c(C3CCN(C)CC3)c(F)c2)nc1Nc1ccc(F)c(NS(=O)(=O)C(C)(C)C)c1 | 3.2 |
| N#CCC(C1CCCC1)n1cc(-c2nc(Nc3ccc(C4CCNCC4)cc3)nc3[nH]ccc23)cn1 (racemic) | 11.8 |
| Cc1cnc(Nc2ccc(C3CCN(C)CC3)c(F)c2)nc1Nc1ccc(F)c(NS(=O)(=O)C(C)(C)C)c1 | 3.1 |
| Cc1cnc(Nc2ccc(C3CCN(C)CC3)c(F)c2)nc1Nc1ccc2c(c1)N(S(=O)(=O)C(C)(C)C)CC2 | 4.3 |

The next lines start with the values.

| ΔTm [°C] | SMILES |
| --- | --- |
| 12 | N#CC[C@H](C1CCCC1)n1cc(-c2nc(Nc3ccc(C4CCNCC4)cc3)nc3[nH]ccc23)cn1 |
| 7 | N#CCCn1cc(-c2nc(Nc3ccc(C4CCNCC4)cc3)nc3[nH]ccc23)cn1 |
| 8.3 | N#CC[C@@H](C1CCCC1)n1cc(-c2nc(Nc3ccc(C4CCNCC4)cc3)nc3[nH]ccc23)cn1 |
| 6.4 | C=CCCn1cc(-c2nc(Nc3ccc(C4CCNCC4)cc3)nc3[nH]ccc23)cn1 |

Molecular target: T1, Tyrosine-protein kinase JAK2
Test: biochemical
Settings: not given

| SMILES | IC50 [nM] |
| --- | --- |
| N#CCC(C1CCCC1)n1cc(-c2nc(Nc3ccc(C4CCNCC4)cc3)nc3[nH]ccc23)cn1 (racemic) | < 0.05 |

Test system: not listed separately
Test: cells
Format: functional, tissue-based, UKE-1
Settings: Homo sapiens, UKE1, 72 h

| SMILES | IC50 [nM] |
| --- | --- |
| Cc1cnc(Nc2cc(F)c(C3CCN(C)CC3)c(F)c2)nc1Nc1ccc(F)c(NS(=O)(=O)C(C)(C)C)c1 | 150 |
| Cc1cnc(Nc2ccc(OCCN3CCCC3)cc2)nc1Nc1cccc(S(=O)(=O)NC(C)(C)C)c1 [FEDRATINIB] | 660 |
| Cc1cnc(Nc2ccc(C3CCN(C)CC3)c(F)c2)nc1Nc1ccc(F)c(NS(=O)(=O)C(C)(C)C)c1 | 200 |
| Cc1cnc(Nc2ccc(C3CCN(C)CC3)c(F)c2)nc1Nc1ccc2c(c1)N(S(=O)(=O)C(C)(C)C)CC2 | 210 |

The remaining lines, values ahead:

| IC50 [nM] | SMILES |
| --- | --- |
| 4500 | N#CCCn1cc(-c2nc(Nc3ccc(C4CCNCC4)cc3)nc3[nH]ccc23)cn1 |
| 620 | C=CCCn1cc(-c2nc(Nc3ccc(C4CCNCC4)cc3)nc3[nH]ccc23)cn1 |

Reference: ChEMBL document CHEMBL4706688 (J Med Chem, 2021)
